Values of other authors as cited in patent publication US20040126415A1, “Dermal delivery of a water-soluble selective cyclooxygenase-2 inhibitor” (priority 2002, published 2004).

Legend:
COX-1 = COX-1 (Homo sapiens, UniProt P23219)
COX-2 = target: T1, COX-2 (Homo sapiens, UniProt P35354)
T1 sequence (P35354 18-604): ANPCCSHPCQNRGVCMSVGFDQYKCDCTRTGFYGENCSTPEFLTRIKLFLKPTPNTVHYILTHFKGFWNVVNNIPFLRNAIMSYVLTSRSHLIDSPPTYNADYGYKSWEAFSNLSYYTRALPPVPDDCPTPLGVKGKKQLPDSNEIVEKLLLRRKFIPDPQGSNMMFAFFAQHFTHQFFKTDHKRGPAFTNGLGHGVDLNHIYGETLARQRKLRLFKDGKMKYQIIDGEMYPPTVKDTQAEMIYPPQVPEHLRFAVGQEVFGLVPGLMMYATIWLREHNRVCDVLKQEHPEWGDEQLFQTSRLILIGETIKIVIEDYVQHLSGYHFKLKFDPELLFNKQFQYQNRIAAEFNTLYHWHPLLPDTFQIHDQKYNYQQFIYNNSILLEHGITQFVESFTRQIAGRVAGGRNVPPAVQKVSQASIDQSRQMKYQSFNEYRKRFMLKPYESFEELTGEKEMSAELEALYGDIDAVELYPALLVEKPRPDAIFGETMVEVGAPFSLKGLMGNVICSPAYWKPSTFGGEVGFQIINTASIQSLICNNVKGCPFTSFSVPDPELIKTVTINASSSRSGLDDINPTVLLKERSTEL

Sequence of COX-1 (P23219 24-599): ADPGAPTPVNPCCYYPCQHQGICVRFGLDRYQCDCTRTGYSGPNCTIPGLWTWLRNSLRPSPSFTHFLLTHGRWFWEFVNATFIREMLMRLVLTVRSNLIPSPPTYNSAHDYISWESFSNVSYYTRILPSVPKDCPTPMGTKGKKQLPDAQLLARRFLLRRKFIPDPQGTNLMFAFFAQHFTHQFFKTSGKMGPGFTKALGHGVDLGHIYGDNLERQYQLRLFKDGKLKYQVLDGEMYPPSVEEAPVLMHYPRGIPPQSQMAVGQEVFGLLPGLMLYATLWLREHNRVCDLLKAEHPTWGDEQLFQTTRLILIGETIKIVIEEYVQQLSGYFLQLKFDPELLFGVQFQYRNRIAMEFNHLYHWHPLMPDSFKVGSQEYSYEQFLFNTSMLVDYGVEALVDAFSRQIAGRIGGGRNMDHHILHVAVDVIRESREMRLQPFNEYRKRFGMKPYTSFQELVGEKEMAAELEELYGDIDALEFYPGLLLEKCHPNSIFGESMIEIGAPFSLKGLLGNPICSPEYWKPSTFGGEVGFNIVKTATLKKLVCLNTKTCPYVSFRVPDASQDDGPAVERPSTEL

Structure (SMILES) | in vitro inhibitory activity against COX-1 (COX-1) | in vitro inhibitory activity against COX-2 (COX-2)
CCC(=O)NS(=O)(=O)c1ccc(-c2c(-c3ccccc3)noc2C)cc1 [Parecoxib, N-[[4-(5-methyl-3-phenylisoxazol-4-yl)phenyl]sulfonyl]propanamide] | weak in vitro inhibitory activity | weak in vitro inhibitory activity
Cc1onc(-c2ccccc2)c1-c1ccc(S(N)(=O)=O)cc1 [valdecoxib, 4-[5-methyl-3-phenylisoxazol-4-yl]benzenesulfonamide] | weak inhibitor | 
